Data as given in PubChem BioAssay (NCI).
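Step 1: Grow cells in 96-well plates. Step 2: Expose to compound for 48 hours at 5 concentrations. Step 3: Interpolate endpoints linearly; if unreached, use highest concentration. The concentration for 50% growth inhibition is given as GI50. At the TGI there is no net growth.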

Assays:
Assay in all cases: growth of human tumour cells (NCI), 48 h
MDA-MB-435 = system: MDA-MB-435
SNB-19 CNS = system: SNB-19 CNS
HT29 colon = system: HT29 colon
T-47D breast = system: T-47D breast
HOP-18 NSCLC = system: HOP-18 NSCLC
NCI/ADR-RES ovarian = system: NCI/ADR-RES ovarian
MALME-3M melanoma = system: MALME-3M melanoma
DMS 114 small cell lung = system: DMS 114 small cell lung
NCI-H23 lung = system: NCI-H23 lung
MCF7 breast = system: MCF7 breast
SW-620 colon = system: SW-620 colon
SR leukemia = system: SR leukemia
SF-268 CNS = system: SF-268 CNS
ACHN renal = system: ACHN renal
CCRF-CEM leukemia = system: CCRF-CEM leukemia
A549 NSCLC = system: A549 NSCLC
HOP-62 NSCLC = system: HOP-62 NSCLC
M14 melanoma = system: M14 melanoma
NCI-H226 lung = system: NCI-H226 lung
HOP-92 NSCLC = system: HOP-92 NSCLC
RXF 393 renal = system: RXF 393 renal
OVCAR-5 ovarian = system: OVCAR-5 ovarian
HCT-15 colon = system: HCT-15 colon
HS 578T breast = system: HS 578T breast
SN12C renal = system: SN12C renal
LOX IMVI melanoma = system: LOX IMVI melanoma
OVCAR-8 ovarian = system: OVCAR-8 ovarian
U251 CNS = system: U251 CNS
PC-3 prostate = system: PC-3 prostate
RXF-631 renal = system: RXF-631 renal
CAKI-1 renal = system: CAKI-1 renal
BT-549 breast = system: BT-549 breast
HCC-2998 colon = system: HCC-2998 colon
MDA-N = system: MDA-N
MOLT-4 leukemia = system: MOLT-4 leukemia
HCT-116 colon = system: HCT-116 colon
HL-60(TB) leukemia = system: HL-60(TB) leukemia
SK-MEL-2 melanoma = system: SK-MEL-2 melanoma
K-562 leukemia = system: K-562 leukemia
786-0 renal = system: 786-0 renal
NCI-H460 lung = system: NCI-H460 lung
COLO 205 colon = system: COLO 205 colon
DLD-1 colon = system: DLD-1 colon
UACC-62 melanoma = system: UACC-62 melanoma
DU-145 prostate = system: DU-145 prostate
A498 renal = system: A498 renal
UACC-257 melanoma = system: UACC-257 melanoma
SF-295 CNS = system: SF-295 CNS
SK-OV-3 ovarian = system: SK-OV-3 ovarian
SNB-75 CNS = system: SNB-75 CNS
NCI-H522 lung = system: NCI-H522 lung
OVCAR-4 ovarian = system: OVCAR-4 ovarian
RPMI-8226 leukemia = system: RPMI-8226 leukemia
SK-MEL-5 melanoma = system: SK-MEL-5 melanoma
M19-MEL melanoma = system: M19-MEL melanoma
TK-10 renal = system: TK-10 renal
IGROV1 ovarian = system: IGROV1 ovarian
OVCAR-3 ovarian = system: OVCAR-3 ovarian
SNB-78 CNS = system: SNB-78 CNS
DMS 273 small cell lung = system: DMS 273 small cell lung
SF-539 CNS = system: SF-539 CNS
MDA-MB-231 breast = system: MDA-MB-231 breast
SK-MEL-28 melanoma = system: SK-MEL-28 melanoma
LXFL 529 NSCLC = system: LXFL 529 NSCLC
KM12 colon = system: KM12 colon
UO-31 renal = system: UO-31 renal
EKVX NSCLC = system: EKVX NSCLC
KM20L2 colon = system: KM20L2 colon

`O=C(O)C1NCCc2c1[nH]c1ccccc21` (stereo unspecified) showed a TGI (MDA-MB-435) greater than 10 µM, a GI50 (SNB-19 CNS) greater than 100 µM and a TGI (SNB-19 CNS) greater than 100 µM. The GI50 (HT29 colon) was greater than 100 µM, the TGI (HT29 colon) was greater than 100 µM and the TGI (T-47D breast) was greater than 10 µM. It also gave a TGI (HOP-18 NSCLC) greater than 100 µM, a TGI (NCI/ADR-RES ovarian) greater than 10 µM and a GI50 (MALME-3M melanoma) greater than 100 µM. It also gave a TGI (MALME-3M melanoma) greater than 100 µM, a TGI (DMS 114 small cell lung) greater than 100 µM and a GI50 (NCI-H23 lung) greater than 100 µM. The TGI (NCI-H23 lung) was greater than 100 µM, the TGI (MCF7 breast) was greater than 10 µM and the GI50 (SW-620 colon) was greater than 100 µM. For the same compound, the TGI (SW-620 colon) was greater than 100 µM, the GI50 (SR leukemia) was greater than 100 µM and the TGI (SR leukemia) was greater than 100 µM. It also gave a GI50 (SF-268 CNS) greater than 100 µM, a TGI (SF-268 CNS) greater than 100 µM and a GI50 (ACHN renal) greater than 100 µM. The TGI (ACHN renal) was greater than 100 µM, the GI50 (CCRF-CEM leukemia) was greater than 100 µM and the TGI (CCRF-CEM leukemia) was greater than 100 µM. It also gave a GI50 (A549 NSCLC) greater than 100 µM, a TGI (A549 NSCLC) greater than 100 µM and a TGI (HOP-62 NSCLC) greater than 10 µM. For the same compound, the GI50 (M14 melanoma) was greater than 100 µM, the TGI (M14 melanoma) was greater than 100 µM and the TGI (NCI-H226 lung) was greater than 100 µM. For the same compound, the GI50 (HOP-92 NSCLC) was greater than 100 µM, the TGI (HOP-92 NSCLC) was greater than 100 µM and the TGI (RXF 393 renal) was greater than 10 µM. It also gave a TGI (OVCAR-5 ovarian) greater than 100 µM, a GI50 (HCT-15 colon) greater than 100 µM and a TGI (HCT-15 colon) greater than 100 µM. For the same compound, the TGI (HS 578T breast) was greater than 10 µM, the GI50 (SN12C renal) was greater than 100 µM and the TGI (SN12C renal) was greater than 100 µM. It also gave a TGI (LOX IMVI melanoma) greater than 100 µM, a GI50 (OVCAR-8 ovarian) greater than 100 µM and a TGI (OVCAR-8 ovarian) greater than 100 µM. The GI50 (U251 CNS) was greater than 100 µM, the TGI (U251 CNS) was greater than 100 µM and the TGI (PC-3 prostate) was greater than 10 µM. For the same compound, the TGI (RXF-631 renal) was greater than 100 µM, the GI50 (CAKI-1 renal) was greater than 100 µM and the TGI (CAKI-1 renal) was greater than 100 µM. It also gave a TGI (BT-549 breast) greater than 10 µM, a GI50 (HCC-2998 colon) greater than 100 µM and a TGI (HCC-2998 colon) greater than 100 µM. It also gave a TGI (MDA-N) greater than 10 µM, a GI50 (MOLT-4 leukemia) greater than 100 µM and a TGI (MOLT-4 leukemia) greater than 100 µM. It also gave a GI50 (HCT-116 colon) greater than 100 µM, a TGI (HCT-116 colon) greater than 100 µM and a GI50 (HL-60(TB) leukemia) greater than 100 µM. It also gave a TGI (HL-60(TB) leukemia) greater than 100 µM, a TGI (SK-MEL-2 melanoma) greater than 100 µM and a GI50 (K-562 leukemia) greater than 100 µM. The TGI (K-562 leukemia) was greater than 100 µM, the GI50 (786-0 renal) was greater than 100 µM and the TGI (786-0 renal) was greater than 100 µM. It also gave a TGI (NCI-H460 lung) greater than 100 µM, a GI50 (COLO 205 colon) greater than 100 µM and a TGI (COLO 205 colon) greater than 100 µM. For the same compound, the TGI (DLD-1 colon) was greater than 100 µM, the GI50 (UACC-62 melanoma) was greater than 100 µM and the TGI (UACC-62 melanoma) was greater than 100 µM. It also gave a TGI (DU-145 prostate) greater than 10 µM, a GI50 (A498 renal) greater than 100 µM and a TGI (A498 renal) greater than 100 µM. It also gave a GI50 (UACC-257 melanoma) greater than 100 µM, a TGI (UACC-257 melanoma) greater than 100 µM and a TGI (SF-295 CNS) greater than 100 µM. For the same compound, the GI50 (SK-OV-3 ovarian) was greater than 100 µM, the TGI (SK-OV-3 ovarian) was greater than 100 µM and the GI50 (SNB-75 CNS) was greater than 100 µM. The TGI (SNB-75 CNS) was greater than 100 µM, the GI50 (NCI-H522 lung) was greater than 100 µM and the TGI (NCI-H522 lung) was greater than 100 µM. The GI50 (OVCAR-4 ovarian) was greater than 100 µM, the TGI (OVCAR-4 ovarian) was greater than 100 µM and the TGI (RPMI-8226 leukemia) was greater than 10 µM. It also gave a GI50 (SK-MEL-5 melanoma) greater than 100 µM, a TGI (SK-MEL-5 melanoma) greater than 100 µM and a TGI (M19-MEL melanoma) greater than 100 µM. The GI50 (TK-10 renal) was greater than 100 µM, the TGI (TK-10 renal) was greater than 100 µM and the GI50 (IGROV1 ovarian) was greater than 100 µM. It also gave a TGI (IGROV1 ovarian) greater than 100 µM, a GI50 (OVCAR-3 ovarian) greater than 100 µM and a TGI (OVCAR-3 ovarian) greater than 100 µM. It also gave a TGI (SNB-78 CNS) greater than 100 µM, a TGI (DMS 273 small cell lung) greater than 100 µM and a GI50 (SF-539 CNS) greater than 100 µM. The TGI (SF-539 CNS) was greater than 100 µM, the TGI (MDA-MB-231 breast) was greater than 10 µM and the GI50 (SK-MEL-28 melanoma) was greater than 100 µM. It also gave a TGI (SK-MEL-28 melanoma) greater than 100 µM, a TGI (LXFL 529 NSCLC) greater than 100 µM and a GI50 (KM12 colon) greater than 100 µM. It also gave a TGI (KM12 colon) greater than 100 µM, a TGI (UO-31 renal) greater than 100 µM and a TGI (EKVX NSCLC) greater than 100 µM. It also gave a TGI (KM20L2 colon) greater than 100 µM.
